Our source for the absolute bioavailability and Tg values is US8691872B2 (Teva Pharmaceutical Industries Ltd., priority 2010, dated 2014).

Each structure is given as a SMILES string. Where two headings read alike, the source gives them in different places.

The conditions of data set [1]: AZILECT; cited from earlier work.
How the values of data set [2] were obtained: As used herein, a “glass transition temperature (Tg)” of a solid is the temperature where the solid goes from a rigid state to a flexible state. At Tg, a polymer undergoes a phase transition from a hard, glass-like state to a flexible, rubber-like state. The Tg temperature values listed herein were determined based upon half-height of the step change or “S” shape curve seen in DSC data.
Dispersions were prepared using several techniques including rotary evaporation from solution, cryogrinding dry components and lyophilization. Samples were analyzed by modulated Differential Scanning calorimetry (DSC) to determine glass transition temperatures (Tg). A slight excess of citric acid was used in most dispersions i.e. 0.7:1 mol of rasagiline: citric acid.
In the following experiment, rasagiline base was mixed with citric acid (1:1 mol:mol) and then methanol was added to the mixture. After stirring and complete dissolution of solids, the solution was evaporated under vacuum in rotary evaporator at bath temperature 60° C.

Data set [3] is described as follows: Modulated DSC (MDSC), glass transition temperature (Tg). It counts as physicochemical. The conditions noted are these: Table 1.

Turning to `C#CCN[C@@H]1CCc2ccccc21` [Rasagiline, R(+)-N-propargyl-1-aminoindan], the absolute bioavailability entry in data set [1] is given as “about 36%”.

Regarding `C#CCN[C@@H]1CCc2ccccc21.O=C(O)CC(O)(CC(=O)O)C(=O)O` [Sample 1, mono-rasagiline citrate], the Tg is about 17 °C in data set [2] (by DSC), “Tg = 18 °C” in data set [2] (cyclic DSC) and “Tg = 16 °C” in data set [3].
